Assay results as given in publication PMC3111206, “Phase I study of PD 0332991, a cyclin-dependent kinase inhibitor, administered in 3-week cycles (Schedule 2/1)” (British Journal of Cancer, 2011).

What was measured:
[1] = Phase I dose escalation: dose-limiting toxicities, MTD and RP2D (Schedule 2/1); type: in vivo
Source text: This was a phase I, dose-finding, open-label, non-comparative study of PD 0332991 in patients with Rb-positive solid tumours or non-Hodgkin's lymphoma (NHL). […] On the basis of the low frequency of Rb expression in small-cell lung cancer and […] ([Lee et al, 1987]; [Yokota et al, 1988]; [Shimizu et al, 1994]), patients with both tumour types were excluded from the trial.
The primary objectives of this study were to establish the safety profile of PD 0332991 given in a 3-week treatment cycle by identifying dose-limiting toxicities (DLTs), the maximum administered dose and the maximum tolerated dose (MTD), and to establish the recommended dose for phase II studies (RP2D). Secondary objectives included characterisation of single-dose and steady-state pharmacokinetics (PKs) of oral PD 0332991 and evaluation of preliminary antitumour activity.
Cohorts of patients received escalating doses of PD 0332991 given daily for 2 weeks, followed by 1 week off treatment (Schedule 2/1). Treatment cycles were repeated until the occurrence of disease progression, unacceptable toxicity or withdrawal of consent.
Three to four evaluable patients were initially enrolled per dose-escalation cohort, and the cohort expanded to six evaluable patients, if a DLT occurred during the first treatment cycle. […] The MTD was defined as the highest dose level for which the incidence of first-cycle DLT was <2/6. Cohorts receiving the MTD were expanded to include a minimum of 12 patients. […]

[2] = QTc interval from triplicate electrocardiograms; type: in vivo, human; settings: Fridericia's correction
Method: Safety was assessed at baseline, at regular intervals throughout the study, and within 1 week following treatment discontinuation by recording AEs, haematological and biochemical parameters, and physical status (including ECOG performance status). Adverse event severity was graded using the National Cancer Institute Common Terminology Criteria for Adverse Events, version 3.0 ([Trotti et al, 2003]). Triplicate electrocardiograms (ECGs) ∼2 min apart were taken at baseline, 3 h post-dose on days 1, 8 and 15 of cycle 1, and on day 15 of subsequent cycles for up to six cycles.

[3] = tested on: Rb-positive solid tumours or non-Hodgkin's lymphoma; experiment: Tumour response by RECIST v1.0; type: in vivo, human
Method: Tumour measurements derived from computed tomography or magnetic resonance imaging scans were obtained at baseline, after every 2 cycles during the study, and at the end of treatment. Tumour responses were evaluated based on Response Evaluation Criteria in Solid Tumors, version 1.0 ([Therasse et al, 2000]).

[4] = tested on: absolute neutrophil count (ANC); experiment: Pharmacodynamic Emax modelling of change in ANC vs individual AUC; type: in vivo; settings: Homo sapiens, cycle 1, vs individual AUC, 30 patients, s.e. 11.2, 12.6% CV, read-out: Emax for ANC (change from baseline)
Method: (§1) To document the course of changes in absolute neutrophil count (ANC) and platelets over time during the first two cycles of treatment, an exploratory analysis of data available from the weekly safety laboratory tests was carried out. Possible relationships between PD 0332991 exposure and changes in (i) ANC and (ii) platelets were assessed further by fitting a simple model (without baseline) to determine the maximum […] (Emax).

platelets = experiment: Pharmacodynamic Emax modelling of change in platelets vs individual AUC; type: in vivo; settings: Homo sapiens, Platelet; cycle 1, vs individual AUC, 30 patients; s.e. 16.9; 18.3% CV; read-out: Emax for platelets (change from baseline)
Method: as §1

Rb-negative cell lines = tested on: Rb-negative cell lines; parameters: method as in Fry et al, 2004; settings: ref Fry et al, 2004, cited from earlier work
[5] = tested on: Rb-positive human xenograft models; parameters: method as in Fry et al, 2004; settings: several Rb-positive human xenograft models in vivo; ref Fry et al, 2004; cited from earlier work

For `CC(=O)c1c(C)c2cnc(Nc3ccc(N4CCNCC4)cn3)nc2n(C2CCCC2)c1=O` [PD 0332991], the “Dose recommended for phase II study” value ([1]; human, in vivo) was 200 mg QD, the Maximum administered dose ([1]; human, in vivo, po) was 225 mg QD and the “Maximum tolerated dose (MTD)” value ([1]; oral, Schedule 2/1 (14 days on, 7 days off)) was 200 mg QD. The “Patients with maximum on-treatment QTc ⩾500-msec or >30-msec increase from baseline” value [2] was “no patients”, the “Patients with partial response (PR)” value ([3]; 31 evaluable patients, testicular cancer, 200 mg QD, Schedule 2/1) was “one” and the “Duration of stable disease” value ([3]; one patient with angiomyxoma, 200-mg QD cohort) was 19 cycles. For the same molecule, the “Duration of stable disease” value ([3]; one patient with liposarcoma, 100-mg QD cohort) was 11 cycles, the “Duration of stable disease” value ([3]; one patient with liposarcoma, 225-mg QD cohort) was no less than 23 cycles and the Emax [4] was 88.6%. For the same molecule, the Emax (platelets) was 92.2%, the “Activity against Rb-negative cell lines” value (Rb-negative cell lines; in vitro) was “no activity” and the “Anti-proliferative effect in vitro” value (Rb-negative cell lines; leading to cell-cycle arrest at G1) was “potent anti-proliferative effect”. For the same molecule, the “Effect on tumour growth” value [5] was “significantly reduces tumour growth and leads to tumour regression”.
